This series is described as follows: xn = mol fraction of the nth substance listed. Particulars: 101.3 kPa, Liquid, Pycnometric method.

Structures are written as SMILES. Numbers after ± are expanded uncertainties.

Consider `CC(=O)CCC(=O)O` [4-oxopentanoic acid] + CCCC[N+](CCCC)(CCCC)CCCC.[Br-], for which the mass density (in general, the mass of a sample divided by its volume) runs as follows: (303.15 K, x1 = 0.75) 1093.5 ± 1.1 kg/m3; (313.15 K, x1 = 0.75) 1086.2 ± 1.1 kg/m3; (323.15 K, x1 = 0.75) 1078.8 ± 1.1 kg/m3; (333.15 K, x1 = 0.75) 1072.1 ± 1.1 kg/m3.

As to `CC(=O)CCC(=O)O` [4-oxopentanoic acid] + CC[N+](CC)(CC)CC.[Br-], the mass density by setting is: (303.15 K, x1 = 0.75) 1169.9 ± 1.1 kg/m3; (313.15 K, x1 = 0.75) 1162.2 ± 1.1 kg/m3; (323.15 K, x1 = 0.75) 1154.6 ± 1.1 kg/m3; (333.15 K, x1 = 0.75) 1147.4 ± 1.2 kg/m3.

As for `CC(=O)OCC[N+](C)(C)C.[Cl-]` [acetylcholine chloride] + CC(=O)CCC(=O)O, the mass density is 1136.9 ± 1.1 kg/m3 (303.15 K, x2 = 0.75); 1129.4 ± 1.1 kg/m3 (313.15 K, x2 = 0.75); 1121.8 ± 1.1 kg/m3 (323.15 K, x2 = 0.75); 1114.4 ± 1.1 kg/m3 (333.15 K, x2 = 0.75).

Regarding `CCCC[N+](CCCC)(CCCC)CCCC.[Cl-]` [tetrabutylammonium chloride] + CC(=O)CCC(=O)O, the mass density (303.15 K, x2 = 0.75) was 1027.3 ± 1.2 kg/m3; the mass density (313.15 K, x2 = 0.75) is given as 1020.3 ± 1.3 kg/m3; the mass density (323.15 K, x2 = 0.75) stood at 1013.1 ± 1.3 kg/m3; the mass density (333.15 K, x2 = 0.75) is 1006 ± 1.3 kg/m3.

As for `CC[N+](CC)(CC)CC.[Cl-]` [tetraethylammonium chloride] + CC(=O)CCC(=O)O, the mass density was 1090.3 ± 1.3 kg/m3 (303.15 K, x2 = 0.75); 1083.3 ± 1.3 kg/m3 (313.15 K, x2 = 0.75); 1076.1 ± 1.3 kg/m3 (323.15 K, x2 = 0.75); 1069.2 ± 1.3 kg/m3 (333.15 K, x2 = 0.75).

Source of the values: the NIST ThermoML archive (doi:10.1016/j.jct.2016.08.015).
